Results as given in US12121526B2, “Targeting NCCA-ATP channel for organ protection following ischemic episode” (University of Maryland, Baltimore, priority 2007, dated 2024).
Entries after “also recorded” stand apart in the source; their conditions may differ. Where a name gives a salt, the structure may show the parent alone. Read-outs that look alike come from different tables or passages of the source.

How the values were obtained:
[1] = system: temporary middle cerebral artery occlusion; conditions: cited from earlier work
[2] = system: permanent middle cerebral artery occlusion; conditions: cited from earlier work
[3] = biological target: T1, NCCa-ATP channel (Rattus norvegicus, UniProt Q09429); assay: Patch clamp of NCCa-ATP channel in freshly isolated native reactive astrocytes; format: cell-based; conditions: for EC50: read-out: [ATP]1 EC50 (um)
T1 construct: endogenous in cells; host or cells: freshly isolated native reactive astrocytes (NRA/R1 astrocytes) from the hypoxic inner zone of the gliotic capsule in brain
T1 sequence (Q09429 whole entry): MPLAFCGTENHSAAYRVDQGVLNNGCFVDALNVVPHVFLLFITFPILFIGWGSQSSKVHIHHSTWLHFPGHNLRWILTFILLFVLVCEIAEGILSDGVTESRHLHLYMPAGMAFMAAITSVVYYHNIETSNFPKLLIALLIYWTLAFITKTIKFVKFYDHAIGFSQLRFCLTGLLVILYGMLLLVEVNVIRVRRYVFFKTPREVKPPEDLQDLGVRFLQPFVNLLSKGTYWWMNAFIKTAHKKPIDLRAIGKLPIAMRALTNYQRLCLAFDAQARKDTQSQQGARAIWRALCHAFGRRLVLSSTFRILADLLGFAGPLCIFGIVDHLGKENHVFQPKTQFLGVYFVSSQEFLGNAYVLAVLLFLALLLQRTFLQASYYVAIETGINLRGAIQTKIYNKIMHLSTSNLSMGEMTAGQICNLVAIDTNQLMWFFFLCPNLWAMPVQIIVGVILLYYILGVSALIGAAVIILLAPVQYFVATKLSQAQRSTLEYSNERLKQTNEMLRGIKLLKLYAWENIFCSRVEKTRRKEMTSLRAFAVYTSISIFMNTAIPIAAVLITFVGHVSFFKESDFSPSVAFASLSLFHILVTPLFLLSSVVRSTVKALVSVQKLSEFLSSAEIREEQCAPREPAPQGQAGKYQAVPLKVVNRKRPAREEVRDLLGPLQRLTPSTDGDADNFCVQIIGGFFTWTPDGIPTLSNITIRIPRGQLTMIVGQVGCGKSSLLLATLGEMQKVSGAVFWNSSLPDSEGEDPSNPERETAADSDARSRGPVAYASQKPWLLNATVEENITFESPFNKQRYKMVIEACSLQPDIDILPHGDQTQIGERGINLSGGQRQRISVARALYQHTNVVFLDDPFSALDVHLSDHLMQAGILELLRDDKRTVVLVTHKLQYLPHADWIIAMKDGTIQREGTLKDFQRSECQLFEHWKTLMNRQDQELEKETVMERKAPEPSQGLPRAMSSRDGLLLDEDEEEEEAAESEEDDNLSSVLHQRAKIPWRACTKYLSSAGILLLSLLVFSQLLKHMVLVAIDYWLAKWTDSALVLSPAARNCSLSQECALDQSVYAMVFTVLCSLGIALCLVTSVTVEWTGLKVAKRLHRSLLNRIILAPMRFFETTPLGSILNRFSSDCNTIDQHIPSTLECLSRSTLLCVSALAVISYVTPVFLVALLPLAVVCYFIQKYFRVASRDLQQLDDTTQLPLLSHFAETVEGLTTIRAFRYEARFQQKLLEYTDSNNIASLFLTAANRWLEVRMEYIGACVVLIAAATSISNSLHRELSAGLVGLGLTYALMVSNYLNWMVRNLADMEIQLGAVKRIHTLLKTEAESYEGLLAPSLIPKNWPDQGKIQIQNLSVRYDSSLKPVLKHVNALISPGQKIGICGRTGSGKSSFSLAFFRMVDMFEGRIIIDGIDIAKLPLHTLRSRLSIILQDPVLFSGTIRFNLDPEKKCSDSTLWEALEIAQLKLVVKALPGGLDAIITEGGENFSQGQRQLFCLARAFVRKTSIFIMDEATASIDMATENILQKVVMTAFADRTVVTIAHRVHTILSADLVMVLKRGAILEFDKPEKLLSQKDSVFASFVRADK
T1 sequence (Q9ESQ5 whole entry partner): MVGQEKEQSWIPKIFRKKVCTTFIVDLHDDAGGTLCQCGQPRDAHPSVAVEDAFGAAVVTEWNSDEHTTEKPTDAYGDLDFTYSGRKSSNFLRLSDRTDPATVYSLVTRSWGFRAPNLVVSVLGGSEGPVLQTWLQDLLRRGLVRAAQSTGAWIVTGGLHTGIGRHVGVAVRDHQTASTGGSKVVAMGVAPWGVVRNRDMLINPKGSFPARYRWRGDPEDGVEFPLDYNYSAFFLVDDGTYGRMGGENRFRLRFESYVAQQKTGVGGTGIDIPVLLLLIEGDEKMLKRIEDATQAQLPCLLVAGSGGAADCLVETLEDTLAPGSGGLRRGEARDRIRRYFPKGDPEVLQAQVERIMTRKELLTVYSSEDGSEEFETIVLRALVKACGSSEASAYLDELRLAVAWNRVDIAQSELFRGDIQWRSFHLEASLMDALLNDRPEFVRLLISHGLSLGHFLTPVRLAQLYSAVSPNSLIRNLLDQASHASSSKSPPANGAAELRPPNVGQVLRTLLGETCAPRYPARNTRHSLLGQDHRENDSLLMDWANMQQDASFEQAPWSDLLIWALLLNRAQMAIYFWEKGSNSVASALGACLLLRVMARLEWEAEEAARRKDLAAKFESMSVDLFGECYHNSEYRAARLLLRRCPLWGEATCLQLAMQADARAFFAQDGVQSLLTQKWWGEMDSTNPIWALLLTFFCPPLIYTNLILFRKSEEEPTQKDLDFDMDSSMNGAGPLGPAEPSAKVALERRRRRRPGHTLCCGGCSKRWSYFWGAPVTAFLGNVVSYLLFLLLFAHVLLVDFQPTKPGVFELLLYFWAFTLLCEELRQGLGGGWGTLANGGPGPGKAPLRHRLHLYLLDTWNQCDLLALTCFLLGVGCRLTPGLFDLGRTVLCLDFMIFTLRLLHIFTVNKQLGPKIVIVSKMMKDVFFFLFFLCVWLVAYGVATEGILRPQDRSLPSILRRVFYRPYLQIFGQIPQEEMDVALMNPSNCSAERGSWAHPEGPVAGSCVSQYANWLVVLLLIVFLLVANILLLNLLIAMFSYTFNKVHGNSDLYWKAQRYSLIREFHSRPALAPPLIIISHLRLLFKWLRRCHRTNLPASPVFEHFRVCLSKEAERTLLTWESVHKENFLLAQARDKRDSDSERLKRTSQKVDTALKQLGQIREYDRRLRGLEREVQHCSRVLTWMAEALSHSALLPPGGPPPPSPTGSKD
From the text: The NCCa-ATP channel is a 35 pS cation channel that conducts all inorganic monovalent cations (Na^+, K^+, Cs^+, Li^+, Rb^+), but is impermeable to Ca^2+ and Mg^2+ (Chen and Simard, 2001). […] Studies using a variety of organic monovalent cations indicate that the channel has an equivalent pore radius of 0.41 nm.
The NCCa-ATP channel is believed to be composed of pore-forming and regulatory subunits. The regulatory subunit is sulfonylurea receptor 1 (SUR1), the same as that for KATP channels in pancreatic β cells (Chen et al., 2003), and so NCCa-ATP and pancreatic KATP channels have pharmacological profiles that resemble each other closely. […] Knockdown of SUR1 using antisense-oligodeoxynucleotide reduces SUR1 expression (Simard et al., 2006) and prevents expression of functional NCCa-ATP channels.

[4] = biological target: T1, NCCa-ATP channel; conditions: cited from earlier work
[5] = biological target: T2, SUR1-regulated NCCa-ATP channel (Homo sapiens, UniProt Q09428); assay: Patch clamp of cultured human aortic endothelial cells after hypoxia; format: cell-based
T2 construct: cultured endothelial cells from human aorta (ScienCell, SanDiego CA) were also studied; host or cells: human aortic endothelial cells (HAEC) cultured under hypoxia (1% O2)
From the text: In addition to studying freshly isolated capillary endothelial cells from rat spinal cord, cultured endothelial cells from human aorta (ScienCell, SanDiego CA) were also studied. The purpose with these studies was to investigate whether hypoxia/ischemia can lead to up-regulation of the SUR1-regulated NCCa-ATP channels in endothelial cells, a finding that was previously reported for astrocytes and neurons (Chen et al., 2003; Simard et al., 2006), but not endothelial cells. Endothelial cells were cultured under normoxic (room air) and hypoxic (1% 02) conditions. Cells cultured under both conditions were immunolabeled for SUR1, the regulatory subunit of both KATP and NCCa-ATP channels.
The diazoxide-induced current (difference current in FIG. 15A) reversed at E(K) consistent with an SUR1-regulated KATP channel current.
Inside-out patches from cells maintained under hypoxic conditions were also studied. […]
Patch clamp of endothelial cells was performed using a nystatin-perforated patch technique, to maintain the metabolic integrity of the cells. The identity of the activated channel can be assessed by measurement of the “reversal potential”, the potential at which an ion channel current reverses from inward to outward. […]

[6] = biological target: receptor-mediated Ca2+ entry; conditions: cited from earlier work
[7] = system: global cerebral ischemia; conditions: in vivo; cited from earlier work
[8] = system: freshly isolated reactive astrocytes; conditions: cited from earlier work; for Cell blebbing: glibenclamide with 1 mM Na azide, diazoxide alone without ATP depletion
[9] = system: isolated retina of chick embryo; conditions: glucose/oxygen deprivation or excitotoxic conditions; cited from earlier work
[10] = system: recombinant MMP; assay: Zymography of gelatinase activity of recombinant MMP; format: biochemical; conditions: glibenclamide 10 μM; MMP-inhibitor II 300 nM
From the text: In stroke, hemorrhagic conversion has been attributed to activation of matrix metalloproteinases (MMP) (Gidday et al., 2005; Justicia et al., 2003; Lorenzl et al., 2003; Romanic et al., 1998). […] This was studied directly using zymography of recombinant MMPs.

[11] = system: cervical spinal cord contusion injury; assay: Rat cervical hemi-cord contusion spinal cord injury model; format: in vivo
From the text: The cervical contusion SCI model that is used is that of Soblosky et al. (2001). Adult female Long-Evans rats are anesthetized (Ketamine and Xylazine) and a hemilaminectomy is made at C4-5 to expose the dura. A hemi-cervical spinal cord contusion is created using a blunt force impactor (see details below “The model of contusion SCI”).
To generate the injury for the data shown here, the impactor was activated using a 10-gm weight dropped from 2.5 cm.
Animals were sacrificed at ¾ hr and 24 hr after contusion SCI (n=5 rats per group), they were perfused with heparinized saline to remove intravascular blood, and 5-mm segments of cord encompassing the lesion were homogenized and processed using Drabkin's reagent to convert hemoglobin to cyanomethemoglobin for spectrophotometric measurements (Choudhri et al., 1997).
Animals underwent the same SCI as above, and immediately after, were implanted with mini-osmotic pumps (Alzet 2002, 14 day pump, […]; Durect Corporation, Cupertino, CA) that delivered either saline or drug s.q.
Spinal cords were examined 24 hr after SCI. […] In other rats, […] sections of cord were harvested that encompassed the contusion site and we quantified the amount of blood present in tissues after removal of intravascular blood by perfusion at time of euthanasia (n=5-6 rats per group).
As previously described (Gensel et al., 2006), rats were placed in a glass cylinder to which they had not been previously exposed. A peanut butter treat was placed 8 inches above the floor, and the number of seconds spent with both front paws elevated above shoulder-height was counted during a 3-min period of observation.

[12] = system: freshly isolated reactive astrocytes; conditions: 1 mM Na azide; 1 μM glibenclamide; cited from earlier work
[13] = system: NCCa-ATP channels; assay: Nystatin-perforated patch clamp of hypoxic endothelial cells, current activated by Na+ azide; format: cell-based, human; conditions: 1 μM; hypoxic conditions
Method: Patch clamp of endothelial cells was performed using a nystatin-perforated patch technique, to maintain the metabolic integrity of the cells. The identity of the activated channel can be assessed by measurement of the “reversal potential”, the potential at which an ion channel current reverses from inward to outward. With physiologically relevant concentrations of ions intracellularly and extracellularly (high potassium inside, high sodium outside), the reversal potential can unambiguously distinguish between a K^+ channel current such as KATP, which reverses negative to −50 mV and a non-selective cation channel current such as NCCa-ATP, which reverses near 0 mV.
Channel activation was also studied upon induction by Na^+ azide, a […] that depletes cellular ATP (Chen and Simard, 2001).

[14] = system: large MCA stroke associated with malignant cerebral edema; conditions: cited from earlier work
[15] = system: stroke induced by thromboemboli; conditions: constant infusion 75-200 ng/h; cited from earlier work
[16] = system: transient focal ischemia; conditions: pre- or post-ischemic administration; cited from earlier work
[17] = system: permanent MCAO; conditions: given 30 min after initiation of permanent MCAO; cited from earlier work
[18] = after 6 h of vascular occlusion
[19] = Membrane Preparation derived from freshly isolated native reactive astrocytes

For `COc1cc2c(cc1OC)C(C(C(=O)N(CCc1ccc(OC)c(OC)c1OC)CCc1ccc(OC)c(OC)c1OC)c1ccccc1)=NCC2` (racemic) [pinokalant, (R,S)-(3,4-dihydro-6,7-dimethoxy-isoquinoline-1-yl)-2-phenyl-N,N-di[2-(2,3,4-trimethoxyphenyl)ethyl]-acetamide], the DWI-derived infarct volume ([1]; 4 h after MCAO) is given as “significantly smaller”, the Neurological scores ([1]; at 24 h) is given as “significantly better” and the TTC-derived infarct volume ([1]; postmortem) is given as “significantly attenuated”. For the same compound, the Blood flow [2, 18] was “significantly higher”, the “Reduction of the volume of ATP-depleted and morphologically injured tissue (infarct core)” value [2, 18] was 60-70% and the “Decrease of ADC lesion volume” value ([2]; initial 6 h of vascular occlusion, untreated increased by approximately 50%) was “approximately 20%”.

In the case of `Nc1ncnc2c1ncn2[C@@H]1O[C@H](COP(=O)(O)OP(=O)(O)O)[C@@H](O)[C@H]1O` [ADP], the Effect on channel [3, 19] is given as “No channel effect”, the Effect on channel ([3]; Reactive Astrocytes) is given as “No channel effect” and the “Effect on channel opening” value [4] is given as “unaffected”.

In the case of `Nc1ncnc2c1ncn2[C@@H]1O[C@H](COP(=O)(O)O)[C@@H](O)[C@H]1O` [AMP], the Effect on channel [3, 19] is given as “No channel effect”, the Effect on channel ([3]; Reactive Astrocytes) is given as “No channel effect” and the “Effect on channel opening” value [4] is given as “unaffected”.

In the case of `Nc1ncnc2c1ncn2[C@@H]1O[C@H](COP(=O)(O)OP(=O)(O)OP(=O)(O)O)[C@@H](O)[C@H]1O` [ATP], the EC50 [3, 19] is reported as 790 nM, the EC50 ([3]; Reactive Astrocytes) is reported as 790 nM and the “Single channel openings in inside-out patches” value ([5]; 20 μM in the bath, hypoxic cells, Cs+ as cation) is reported as “inhibited”. For the same compound, the EC50 ([4]; read-out: Block of channel opening, EC50) was 790 nM.

In the case of `COc1ccc(CCCOC(Cn2ccnc2)c2ccc(OC)cc2)cc1` (stereo not drawn) [SKF 96365, 1-(beta-[3-(4-methoxy-phenyl)propoxy]-4-methoxyphenethyl)-1H-imidazole hydrochloride], the IC50 [6] is listed as ~10000 nM.

In the case of `COc1cc(CNC(=O)CCCC/C=C/C(C)C)ccc1O` [capsaicin], the “Electroencephalographic changes, hyperlocomotion and memory impairment induced by global ischemia” value [7] is listed as “antagonize”.

For `Oc1cc2c(cc1O)CN(C(=S)NCCc1ccc(Cl)cc1)CCC2` [capsazepine], the “Effect on rimonabant-induced and capsaicin-induced neuroprotective effects” value [7] is listed as “reversed”.

For `CC1=NS(=O)(=O)c2cc(Cl)ccc2N1` [diazoxide], the “Membrane current, reversing near 0 mV” value ([5]; cells maintained under hypoxic conditions) is given as “significantly increased; also recorded: activated an ohmic current”, the Cell blebbing [8] is given as “reproduced” and the “Block or opening of the NCCa-ATP channel” value [4] is given as “opened”. For the same compound, the “Channel opening in the presence of ATP” value ([4]; in the presence of ATP) was “increased”.

For `O=C(O)c1ccccc1Nc1cccc(C(F)(F)F)c1` [flufenamic acid], the “Protection of retina against ischemic or excitotoxic insult” value (from here on “Protection of retina”) [9] is listed as “protected”.

For `COc1ccc(Cl)cc1C(=O)NCCc1ccc(S(=O)(=O)NC(=O)NC2CCCCC2)cc1` [glibenclamide], the Gelatinase activity [10] was “the same”, the “Hemorrhage at the contusion site” value ([11]; 24 hr after SCI, 75 ng/hr s.q.) was “significantly reduced; also recorded: less prominent” and the “Blood in 6-mm cord segment encompassing the contusion” value ([11]; 24 hr after SCI, 75 ng/hr s.q., vehicle 1.9±0.02) was 0.9 ± 0.2 µL. The “Neurological function (rearing behavior)” value ([11]; 24 hr after injury, 3-min observation) was “significant neurological functional improvement; also recorded: significantly better; also recorded: improves neurological function”, the “Necrotic cell death induced by Na azide” value [12] was “significantly reduced; also recorded: significant reduced” and the “Ohmic current activated by Na+ azide-induced ATP depletion” value [13] was “blocked”. The Membrane depolarization ([8]; cells exposed to Na+ azide to deplete ATP) was “blocks”, the Cell blebbing [8] was “significantly reduces; also recorded: completely prevented; also recorded: blocked” and the Reduction of mortality ([14]; constant infusion 75-200 ng/h) was “by half”. For the same compound, the 7-day mortality ([14]; control rats 68%, n=29 in each group) was 28%, the “Reduction of cerebral edema / ionic edema (excess water)” value ([14]; low-dose, post-ischemic) was “reduced by half” and the “Reduction of lesion volume / stroke size” value [15] was “reduced by half”.

In the case of `Cc1ccc(Cl)c(Nc2ccccc2C(=O)O)c1Cl` [meclofenamic acid], the “Protection of retina” value [9] is given as “protected”.

In the case of `Cc1cccc(Nc2ccccc2C(=O)O)c1C` [mefenamic acid], the “Neuroprotection (necrosis in cortex and subcortical structures)” value [16] is given as “no neuroprotection” and the “Protection of retina” value [9] is given as “protected”.

For `CCOc1cc(CC(=O)N[C@@H](CC(C)C)c2ccccc2N2CCCCC2)ccc1C(=O)O` [repaglinide], the “Block or opening of the NCCa-ATP channel” value [4] is given as “blocked”.

In the case of `Cc1c(C(=O)NN2CCCCC2)nn(-c2ccc(Cl)cc2Cl)c1-c1ccc(Cl)cc1` [rimonabant], the “Electroencephalographic changes, hyperlocomotion and memory impairment induced by global ischemia” value [7] is listed as “antagonize” and the “Reduction of infarct volume” value [17] is listed as ~40%.
